Results published in patent US7108997B2, “Assay for detecting inhibitors of the enzyme myeloperoxidase” (AstraZeneca AB, priority 2001, dated 2006).
Like-named read-outs stand apart in the source and are kept apart here.

Columns and labels:
Type in all cases: biochemical
[1] = biological target: T1, purified human myeloperoxidase (Homo sapiens, UniProt P05164); test: Taurine chloramine/TMB assay of HOCl production by purified myeloperoxidase with test compounds; conditions: for [HOCl]: HOCl generated by myeloperoxidase in presence of 10 μM test compounds (DMSO 0.1%), stopped after five minutes with catalase, None = 56.2 ± 2.1; for % Inhibition: inhibition of HOCl production, 10 μM test compounds (DMSO 0.1%), negative = enhancement
T1 sequence (P05164 49-745): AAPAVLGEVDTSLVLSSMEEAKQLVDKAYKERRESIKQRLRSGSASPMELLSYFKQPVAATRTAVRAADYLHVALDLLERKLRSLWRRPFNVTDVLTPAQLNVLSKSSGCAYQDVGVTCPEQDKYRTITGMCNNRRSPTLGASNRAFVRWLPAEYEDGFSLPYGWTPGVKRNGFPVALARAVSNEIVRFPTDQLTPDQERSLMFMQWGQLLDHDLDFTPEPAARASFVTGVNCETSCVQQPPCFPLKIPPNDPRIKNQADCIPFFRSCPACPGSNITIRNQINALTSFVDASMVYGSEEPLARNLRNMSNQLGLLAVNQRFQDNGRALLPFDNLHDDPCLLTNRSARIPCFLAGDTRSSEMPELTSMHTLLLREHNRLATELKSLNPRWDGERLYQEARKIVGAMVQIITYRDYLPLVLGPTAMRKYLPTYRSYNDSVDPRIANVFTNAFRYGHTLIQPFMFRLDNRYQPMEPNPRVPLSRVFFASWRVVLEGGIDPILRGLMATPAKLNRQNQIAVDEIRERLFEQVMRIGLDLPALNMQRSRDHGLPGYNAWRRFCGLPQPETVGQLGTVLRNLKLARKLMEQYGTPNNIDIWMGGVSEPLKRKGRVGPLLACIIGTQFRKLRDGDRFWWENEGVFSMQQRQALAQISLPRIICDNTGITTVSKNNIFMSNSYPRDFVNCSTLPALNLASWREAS
Procedure: The taurine chloramine assay of the present invention was used to detect HOCl generated by purified human myeloperoxidase. Hydrogen peroxide (100 μM) was added to 20 mM phosphate buffer pH 6.5 containing 20 nM myeloperoxidase, 100 mM NaCl and 10 mM taurine. The mixture was incubated for 15 minutes at room temperature and the reaction stopped by adding catalase (10 μg/ml). Five minutes later developing reagent was added to detect the generated taurine chloramine. The amount of taurine chloramine produced was compared to that formed by adding 100 μM HOCl to the PBST. […] The concentration of stock hydrogen peroxide was determined using E240 43.6 M^−1 cm^−1 and that of stock hypochlorite using E292 350 M^−1 cm^−1.
Hypochlorous acid was generated by myeloperoxidase in the absence or presence of 10 μM test compounds under the conditions described above for the time course experiment. Reactions were initiated by adding hydrogen peroxide and stopped five minutes later by adding catalase.

MPO [2] = biological target: T2, MPO (Homo sapiens, UniProt P05164); test: MPO taurine chloramine/TMB assay with catalase stop (Example 5)
T2 sequence (P05164 49-745): T1 sequence (P05164 49-745)
Procedure: Assay buffer: 20 mM sodium/potassium phosphate buffer pH 6.5 containing 10 mM taurine and 100 mM NaCl.
Developing reagent: 2 mM TMB, 200 μM KI, 200 mM acetate buffer pH 5.4 with 20% DMF.
To 10 μl of diluted compounds in assay buffer, 40 μl of MPO (final concentration 2.5 nM) was added for 10 minutes at room temperature. Then 50 μl of H2O2 (final concentration 100 μM), or assay buffer alone as a control, were added for 10 minutes at room temperature. […] Plates were mixed and subsequently read at 650 nm.

[3] = biological target: T1, purified human myeloperoxidase; test: Taurine chloramine/TMB assay of HOCl production by purified myeloperoxidase with test compounds; conditions: catalase at 20 μg/ml
MPO [4] = biological target: T2, MPO; test: In vitro MPO assay measuring HOCl production (Example 1); set-up: purchased Planta
Procedure: Here we describe an in vitro MPO assay that was developed to assess inhibition of enzyme activity. Essentially the MPO assay was designed to measure the production of hypochlorous acid (HOCl), which is the key physiological product generated by the enzyme in vivo. An outline of the assay reactions is given:
Compounds were preincubated with the MPO enzyme in buffer for about 15 minutes prior to start of the reaction with H2O2. The whole reaction was carried out at room temperature for 10 minutes in a 96-well plate. […] All test concentrations were done in duplicate with at least two separate determinations (n=2; unless otherwise stated). The inhibitory concentration for a compound is presented as pIC50, which is −log IC50.

Compound	[HOCl] [1] [µM]	inhibition at 10 µM ([1]; read-out: % Inhibition) [%]	also measured
Nc1ccc(Br)cc1 [p-Bromoaniline]	2.5 ± 0.1	–	inhibition at 10 µM [1]: 95.6%
Nc1ccc(S(=O)(=O)c2ccc(N)cc2)cc1 [Dapsone]	1.8 ± 0.1	97	IC50 (MPO [2]; in the absence of tyrosine): 257 ± 73 nM; IC50 (MPO [2]; in the presence of 8 μM tyrosine): 7120 ± 610 nM
Catalase	8.8 ± 1.3	–	% Inhibition [1]: 84%; inhibition of the formation of HOCl [3]: 90%
Nc1ccc(S(=O)(=O)Nc2nccs2)cc1 [N-1(2-thiazolyl)-sulfanilamide]	–	–	IC50 (MPO [4]): 1000 nM
COc1ccc2[nH]cc(CCO)c2c1 [5-Methoxytryptophol]	–	–	IC50 (MPO [4]): 501 nM
N[C@@H](Cc1ccc(O)cc1)C(=O)O [Tyrosine]	107.0 ± 0.5	-90	–
COc1ccc(OC)cc1 [1,4-Dimethoxybenzene]	15.2 ± 1.0	73	–
C[S+](C)[O-] [DMSO, dimethylsulphoxide]	52.8 ± 1.2	–	% Inhibition [1]: 6%
